# Columns and labels:
# [1] = tested on: TNBS-induced inflammatory bowel disease rat model; assay: Oral efficacy in TNBS-induced inflammatory bowel disease rat model; assay type: in vivo, Sprague Dawley rats
# Description: (§1) Sprague Dawley rats aged 7-8 weeks were purchased from OrientBio (Korea), stabilized with general solid feed for 3 days, and then used in this experiment. Feed and water were freely supplied during the experiment period, and the temperature of the breeding room was maintained at 25±1° C. and the relative humidity at 50±10%. Lighting management was controlled in a 12-hour light-dark cycle by an automatic lighting controller.
# After anesthetizing rats that had been fasted for 24 hours with diethyl ether, 0.8 mL of 5% TNBS diluted with 50v/v % ethanol was slowly injected into the lumen of the colon using a 1 mL syringe connected to a polyethylene catheter, and then, the rats were left standing for 60 seconds in an inverted position in order to prevent 5% TNBS from leaking into the anus. For the control group, only vehicle [50v/v % ethanol] was injected in the same manner as in the other groups (Thapa et al., 2008).
# In order to investigate the effect of the drug, the drug was administered at a constant time every day for 5 days from the day after the TNBS treatment.
# Changes in body weight of each rat were observed from the fasting stage to the TNBS administration and drug administration process using a digital mass meter.
# The colon of the rat was extracted, and the tissue 5-6 cm away from the anus was cut into a length of 1 cm, and the weight of the tissue was measured.
# The weighed rat tissues were fixed with 4% paraformaldehyde solution, and then transferred to 30% sucrose solution. When the tissues subside, they were taken out and cut into […] thick using a cryomicrotome (Microm HM 450, Thermo Fisher Scientific, Germany) and stored in a cryopreservation solution. After washing the tissue section with KPBS, the tissue section was attached to a slide glass, dried, and then stained with hematoxylin & Eosin and observed under a microscope.
# [2] = tested on: DSS-induced acute enteritis mouse model; assay: Oral efficacy in DSS-induced acute enteritis mouse model; assay type: in vivo, C57BL/6 mice; details: for Body weight recovery rate (%) / Intestinal weight recovery rate (%): acute enteritis (DSS), mouse
# Description: as §1, with “C57BL/6 mice” for “Sprague Dawley rats”, “7” for “3”
# Enteritis was induced in mice by allowing them to freely ingest drinking water containing 2% DSS salt (M.W. 36,000˜50,000, MP Biomedicals, LLC, OH, USA). For the chronic enteritis model, DSS was administered using a schedule of DSS administration for the first 7 days, administration of normal drinking water for 14 days, repeated administration of DSS for 7 days from the 21st day, and administration of normal drinking water for 7 days. The drug was administered once a day, 6 days a week from the first day of DSS treatment (FIG. 2A). […] In order to measure the dose-dependent therapeutic effect of the drug in the acute enteritis model, DSS was administered for 5 days to induce enteritis, and then the drug was administered for 14 days to measure the degree of recovery and treatment of enteritis (FIG. 3A). The drug was administered orally once daily for […] at a fixed time.
# Changes in body weight of each mouse were observed during the DSS and drug administration using a digital mass meter.
# The colon of the mouse was extracted, and the length and weight from the anus to the cecum were measured.
# The degree of neutrophil infiltration in the tissue was measured by the amount of MPO, a neutrophil marker enzyme. The colon tissue with a size of 1 cm was washed with cold PBS and weighed, to which a lysis buffer (pH7.4, 200 mM NaCl, 5 mM EDTA, 10 mM tris, 10% glycerin, 1 mM PMSF, 1 μg/mL leupeptin and 28 μg/mL aprotinin) was added (500 μL of per 10 mg of tissue weight), and then homogenized using Bead Blaster® D2400 homogenizer (Benchmark Scientific, NJ, USA). […] (HK210, Hycult Biotechnology, Netherlands). The supernatant was added to a 96 well plate (100 μL/well) coated with an anti-mouse MPO antibody, and incubated for 1 hour at room temperature, followed by washing 3 times with a washing buffer. A reconstituted tracer was added to the plate (100 μL/well), which was reacted at room temperature for 1 hour, washed 3 times, and then 100 μL of streptavidin-peroxidase conjugate was added to each well of the plate. The plate was reacted at room temperature for 1 hour, washed, and 100 μl of TMB substrate solution was added to each well of the plate, followed by reaction for 30 minutes. The reaction was terminated by adding 100 μL of a stop solution to each well of the plate, and absorbance was measured at 450 nm. MPO activity means the amount of 1 μM […] at 25° C. for 1 minute. This was calculated as the amount of MPO contained in 1 mL of the colon tissue homogenate.
# Tissue staining was performed in the same manner as in the case of hematoxylin/eosin staining of the rat colon tissue, and scoring indexes of mucosal damage and recovery were applied in the same way.
# [3] = 0.3 mg/kg, dose-dependence test (Table 7)
# [4] = 1 mg/kg, dose-dependence test (Table 7)
# [5] = 3 mg/kg, dose-dependence test (Table 7)
# [6] = 10 mg/kg, dose-dependence test (Table 7)
# [7] = oral 1 mg/kg, 5 days, fixed-dose test (Table 6)
compound,measurement,setting,value
"Cc1ccc2[nH]c(C(=O)Nc3nc(C)c(O)c(C)c3C)cc2c1 [Compound X-09, N-(5-hydroxy-3,4,6-trimethylpyridin-2-yl)-5-methyl-1H-indole-2-carboxamide]",Body weight recovery rate (%),[1]; [3],17.2%
same,Intestinal weight recovery rate (%),[1]; [3],47.0%
same,Body weight recovery rate (%),[1]; [4],69.3%
same,Intestinal weight recovery rate (%),[1]; [4],85.2%
same,Body weight recovery rate (%),[1]; [5],74.6%
same,Intestinal weight recovery rate (%),[1]; [5],91.7%
same,Body weight recovery rate (%),[1]; [6],80.8%
same,Intestinal weight recovery rate (%),[1]; [6],98.9%
same,Mucosal damage recovery of rat colon (hematoxylin-eosin score),"[1]; X-09 dose range, FIG. 1",dose-dependent mucosal damage recovery activity
same,"Morphological observation of colon (visual symptoms, adhesions, congestion)","[1]; after 5 days of drug administration, sulfasalazine 300 mg/kg, X-09 0.3-10 mg/kg",dose-dependent therapeutic activity for enteritis
same,Body weight recovery rate (%),[1]; [7],72.7%
same,Intestinal weight recovery rate (%),[1]; [7],94.0%
same,"Morphological observation of colon, therapeutic effect versus tofacitinib","[2]; DSS acute mouse, 10 mg/kg, FIG. 3C",significantly superior to that of the control group treated with 30 mg/kg of tofacitinib
same,Morphological observation of colon,"[2]; DSS acute mouse, X-09 dose range, FIG. 3C",dose-dependent therapeutic efficacy
same,level of MPO in colon tissue,"[2]; DSS acute mouse, X-09 dose range, FIG. 3E",decreased by compound X-09 dose-dependently
same,Mucosal damage recovery of mouse colon (hematoxylin-eosin score),"[2]; DSS mouse, X-09 dose range, FIG. 4",dose-dependent mucosal damage recovery effect
same,Body weight recovery rate (%),[2]; 0.3 mg/kg,56.5%
same,Intestinal weight recovery rate (%),[2]; 0.3 mg/kg,48.4%
same,Body weight recovery rate (%),[2]; 1 mg/kg,72.0%
same,Intestinal weight recovery rate (%),[2]; 1 mg/kg,76.7%
same,Body weight recovery rate (%),[2]; 3 mg/kg,80.7%
same,Intestinal weight recovery rate (%),[2]; 3 mg/kg,89.0%
same,Body weight recovery rate (%),[2]; 10 mg/kg,88.1%
same,Intestinal weight recovery rate (%),[2]; 10 mg/kg,96.4%

# Source: patent publication US12398117B2, “Heteroarylamidopyridinol derivative and pharmaceutical composition comprising same as active ingredient for prevention or treatment of autoimmune disease” (INNOVO THERAPEUTICS INC., priority 2019, dated 2025)
